{"source": "ChEMBL document CHEMBL6182831", "about": "“Thiazole-fused androstenone and ethisterone derivatives: potent β- and γ-actin cytoskeleton inhibitors to treat melanoma tumors” (RSC Med Chem, 2025)", "format_in_all_cases": "functional", "key": {"LOX IMVI": {"test_system": "LOX IMVI", "experiment": "Cytotoxicity against human LOX IMVI cells assessed as inhibition of cell growth incubated for 24 hrs by resazurin staining based analysis"}, "B16-F10": {"test_system": "B16-F10", "experiment": "Cytotoxicity against mouse B16-F10 cells assessed as inhibition of cell growth incubated for 24 hrs by resazurin staining based analysis", "details": "B16-F10, 24 h"}, "SK-MEL-28": {"test_system": "SK-MEL-28", "experiment": "Cytotoxicity against human SK-MEL-28 cells assessed as inhibition of cell growth incubated for 24 hrs by resazurin staining based analysis", "details": "SK-MEL-28, 24 h"}, "SK-MEL-5": {"test_system": "SK-MEL-5", "experiment": "Cytotoxicity against human SK-MEL-5 cells assessed as inhibition of cell growth incubated for 24 hrs by resazurin staining based analysis", "details": "SK-MEL-5, 24 h"}, "SK-MEL-25": {"test_system": "SK-MEL-25", "experiment": "Cytotoxicity against human SK-MEL-25 cells assessed as inhibition of cell growth incubated for 24 hrs by resazurin staining based analysis", "details": "SK-MEL-25, 24 h"}}, "note": "pIC50: −log10 of the molar value."}
{"smiles": "COc1ccc(Cl)cc1Nc1nc2c(s1)C1=CC[C@@H]3[C@H](CC[C@]4(C)C(=O)CC[C@@H]34)[C@@]1(C)CC2", "values": [{"measurement": "pIC50", "setting": "LOX IMVI", "value": 5.52}, {"measurement": "pIC50", "setting": "B16-F10", "value": 5.44}, {"measurement": "pIC50", "setting": "SK-MEL-28", "value": 5.32}, {"measurement": "pIC50", "setting": "SK-MEL-5", "value": "< 4.70"}, {"measurement": "pIC50", "setting": "SK-MEL-25", "value": "< 4.70"}]}
{"smiles": "C#C[C@]1(O)CC[C@H]2[C@@H]3CC=C4c5sc(Nc6cccnc6)nc5CC[C@]4(C)[C@H]3CC[C@@]21C", "values": [{"measurement": "pIC50", "setting": "LOX IMVI", "value": 5.59}, {"measurement": "pIC50", "setting": "B16-F10", "value": 4.97}, {"measurement": "pIC50", "setting": "SK-MEL-28", "value": 5.64}, {"measurement": "pIC50", "setting": "SK-MEL-5", "value": 5.52}, {"measurement": "pIC50", "setting": "SK-MEL-25", "value": 5.68}]}
{"smiles": "C[C@]12CCc3nc(NCCc4ccccc4)sc3C1=CC[C@@H]1[C@@H]2CC[C@]2(C)C(=O)CC[C@@H]12", "values": [{"measurement": "pIC50", "setting": "LOX IMVI", "value": 5.05}, {"measurement": "pIC50", "setting": "B16-F10", "value": 5.21}, {"measurement": "pIC50", "setting": "SK-MEL-28", "value": 5.27}, {"measurement": "pIC50", "setting": "SK-MEL-5", "value": 5.28}, {"measurement": "pIC50", "setting": "SK-MEL-25", "value": "< 4.70"}]}
{"smiles": "C#C[C@]1(O)CC[C@H]2[C@@H]3CC=C4c5sc(Nc6cccc(C)n6)nc5CC[C@]4(C)[C@H]3CC[C@@]21C", "values": [{"measurement": "pIC50", "setting": "LOX IMVI", "value": 5.55}, {"measurement": "pIC50", "setting": "B16-F10", "value": 5.19}, {"measurement": "pIC50", "setting": "SK-MEL-28", "value": 5.52}, {"measurement": "pIC50", "setting": "SK-MEL-5", "value": 5.41}, {"measurement": "pIC50", "setting": "SK-MEL-25", "value": 5.29}]}
{"smiles": "C#C[C@]1(O)CC[C@H]2[C@@H]3CC=C4c5sc(Nc6cc(C)cc(C)n6)nc5CC[C@]4(C)[C@H]3CC[C@@]21C", "values": [{"measurement": "pIC50", "setting": "LOX IMVI", "value": 5.39}, {"measurement": "pIC50", "setting": "B16-F10", "value": 4.99}, {"measurement": "pIC50", "setting": "SK-MEL-28", "value": 5.26}, {"measurement": "pIC50", "setting": "SK-MEL-5", "value": 5.60}, {"measurement": "pIC50", "setting": "SK-MEL-25", "value": 5.19}]}
